The values below come from PubChem BioAssay (NCI).

SMILES strings stand for the structures. Values joined by “and” are separate entries in the source; they are usually repeats but may differ in a detail not shown here. Equal values may be shown once.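 96-well plates; 48 h exposure; 5 concentrations. Endpoints by linear interpolation between flanking doses. Not reached: highest tested concentration assigned. The concentration for 50% growth inhibition is given as GI50. TGI denotes the concentration required for complete inhibition of growth.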 Where a SMILES comes first, the peptide text is derived from it. The star is where a group is joined. Boc = CC(C)(C)OC(=O)*; Bn = c1ccc(C*)cc1

Assay in all cases: inhibition of tumour cell growth, NCI panel, 48 h
For experiment [1], the system named is HOP-62 NSCLC.
Experiment [2] deals with NCI-H460 lung.
Experiment [3] relates to SK-OV-3 ovarian.
The test system of experiment [4] is OVCAR-4 ovarian.
The test system of experiment [5] is K-562 leukemia.
Experiment [6] relates to TK-10 renal.
In experiment [7] the test system is MDA-MB-231 breast.
Experiment [8] has as its system CAKI-1 renal.
Experiment [9] deals with A549 NSCLC.
The test system of experiment [10] is A498 renal.
Experiment [11] relates to U251 CNS.
The subject of experiment [12] is SK-MEL-2 melanoma.
Experiment [13] relates to OVCAR-3 ovarian.
For experiment [14], the system named is HT29 colon.
The test system of experiment [15] is UACC-62 melanoma.

Take `C/C=C\C(CC(=O)OC)CC(=O)N(CCC1CN(S(=O)(=O)C(F)(F)F)c2ccccc21)Cc1ccc(OC)cc1OC` (centres undefined): the TGI in experiment [1], in experiment [2], in experiment [3], in experiment [4], in [5] and in [6] was above 100 µM in each case. The TGI in [7], in [8], in experiment [9], in experiment [10], in [11] and in [12] was above 100 µM throughout. In experiment [13], this compound yielded a TGI above 100 µM.
Take `CCOC(=O)C1(N)CC1`: the TGI in experiment [14], in [1], in [2], in experiment [4], in experiment [5] and in experiment [6] was above 100 µM each time. Further, the TGI in [7], in experiment [8], in experiment [9], in experiment [10], in experiment [11] and in experiment [13] was above 100 µM in each case.
As to `CNC(=O)C(CC(C)C)NC(=O)C(C)NC(=O)C(Cc1ccc(OCc2ccccc2)cc1)NC(=O)C(COCc1ccccc1)NC(=O)OC(C)(C)C` (centres undefined) (Boc-S(Bn)Y(Bn)AL-NHMe; configuration not given here), the TGI in experiment [14] is > 38.9 µM and 30.9 µM; in experiment [1], > 53.2 µM and 38.1 µM; in [2] it was > 61.4 µM and 42.6 µM; in experiment [3], > 60.3 µM and 39.6 µM; in experiment [4], 41.2 µM and 45.4 µM; in [5], > 48 µM and 38.4 µM. Besides, the TGI in experiment [6] is above 100 µM; in experiment [7], 35.7 µM and 36 µM; in [8] it was above 100 µM; in experiment [9] it was > 100 µM and 51.4 µM; in experiment [10], 94 µM and 30.3 µM; in experiment [11], > 41.3 µM and 31.7 µM. In addition, the TGI in experiment [13] is > 100 µM and 44 µM; in [15] it was above 31.6 µM. Besides, the GI50 in experiment [2] is > 41 µM and 18.3 µM; in experiment [6] it was > 73.8 µM and 29.1 µM; in experiment [9] it was > 70.9 µM and 16.9 µM; in [10], 33.7 µM and 12.5 µM; in [13], 42.1 µM and 19.1 µM.
`O=c1[nH]c2c(c(=O)[nH]1)C(c1ccc([N+](=O)[O-])cc1)c1c([nH]c(=O)[nH]c1=O)O2`: the TGI in experiment [14], in experiment [1], in experiment [2], in [3], in experiment [4] and in experiment [6] was above 100 µM throughout. The TGI in experiment [7], in experiment [8], in experiment [9], in [10], in experiment [11] and in experiment [12] was above 100 µM throughout. The TGI in experiment [13] and in experiment [15] was above 100 µM throughout.
Regarding `O=C(NCCCN(CCCCN(CCCNC(=O)c1cc(S(=O)(=O)O)cc(O)c1O)C(=O)c1cc(S(=O)(=O)O)cc(O)c1O)C(=O)c1cc(S(=O)(=O)O)cc(O)c1O)c1cc(S(=O)(=O)O)cc(O)c1O`, the TGI in experiment [14], in experiment [2], in experiment [4], in [5], in experiment [6] and in [7] was above 100 µM in each case. Also, the TGI in experiment [8], in experiment [9], in experiment [10], in [11], in experiment [12] and in experiment [15] was above 100 µM each time.
Turning to `CC(=O)n1[nH]c(=O)n(-c2ccccc2)c1=O`, the TGI in [14], in experiment [1], in experiment [2], in experiment [3], in experiment [4] and in [5] was above 100 µM in each case. Further, the TGI in [6], in experiment [7], in experiment [8], in experiment [9], in [11] and in experiment [12] was above 100 µM in each case. For the same compound, the TGI in experiment [13] and in [15] was above 100 µM each time.
For `S=C1CC(c2ccccc2)Sc2cc(Cl)ccc2N1` (centres undefined), the TGI in experiment [14] is above 100 µM; in experiment [1], 18.4 µM; in experiment [2] it was 22.8 µM; in experiment [3], 19.9 µM; in [4] it was 28 µM; in experiment [5], 11.2 µM. In addition, the TGI in experiment [6] is 38.9 µM; in [7] it was 20.7 µM; in experiment [8], 29 µM; in [9], 38.4 µM; in experiment [11], 17.7 µM; in experiment [13] it was 8.49 µM. This compound also returned a TGI in experiment [15] of 44.9 µM.
Consider `CC1=CC(=O)N(n2c(-c3ccccc3)n[nH]c2=O)C1=O`, for which the TGI in experiment [14], in experiment [1], in [2], in experiment [3], in experiment [4] and in [5] was above 100 µM each time. Moreover, the TGI in experiment [6], in [7], in [8], in experiment [9], in experiment [11] and in [12] was above 100 µM throughout. Besides, the TGI in [13] and in [15] was above 100 µM throughout.
Take `Nc1cc(Cl)ccc1SSc1ccc(Cl)cc1N`: the TGI in experiment [14] was 42.3 µM; in experiment [1] it was 29.4 µM; in [2], 31.6 µM; in [3], above 100 µM; in experiment [4], 31.1 µM; in experiment [5] it was above 100 µM. Besides, the TGI was 40.8 µM in [6]; 20.3 µM in [7]; 35.7 µM in experiment [8]; above 100 µM in experiment [9]; 15.4 µM in experiment [11]; 35 µM in [12]. In experiment [15], this compound came in with a TGI of 12.7 µM.
As to `O=[N+]([O-])/C(Cl)=C/C(=C1/Nc2ccccc2O1)[N+](=O)[O-]`, the TGI in experiment [14] is above 100 µM; in [1], 76.6 µM; in [2], 81 µM; in experiment [3], 75.7 µM; in experiment [4], 84.4 µM; in experiment [5] it was 87.1 µM. Besides, the TGI was above 100 µM in [6]; 76.4 µM in experiment [7]; 45.9 µM in experiment [8]; above 100 µM in [9]; 38.3 µM in [10]; 28.7 µM in experiment [11]. Moreover, the TGI turned out to be 57.5 µM in experiment [13] and 56.7 µM in experiment [15].
Take `Cc1ccsc1C(=S)Nc1ccc(Cl)c(/C=N/OC(C)C)c1`: the TGI in experiment [14] was above 100 µM; in experiment [1] it was above 100 µM; in [2] it was above 100 µM; in [3], above 100 µM; in [4], 98.9 µM; in experiment [6] it was above 100 µM. The TGI in [7], in experiment [8], in [9], in experiment [10], in [11] and in experiment [12] was above 100 µM each time. Further, the TGI in experiment [13] and in experiment [15] was above 100 µM each time.
Take `Cc1ccc(C(=O)N/N=C(\N=Nc2ccccc2Cl)c2ccc(N(C)C)cc2)cc1`: the TGI in [14] is above 100 µM; in experiment [2], above 100 µM; in experiment [3], above 100 µM; in experiment [4], 78.4 µM; in [5] it was above 100 µM; in experiment [6], above 100 µM. Further, the TGI was above 100 µM in experiment [7]; 75.4 µM in [8]; above 100 µM in [9]; above 100 µM in [11]; above 100 µM in experiment [12]; above 100 µM in [13]. Also, the TGI in experiment [15] stood at 17.8 µM.
As to `Cc1cc(S(=O)(=O)NC(=NCCc2ccccc2)NN)c(S)cc1Cl`, the TGI is above 100 µM in experiment [14]; 53.7 µM in experiment [3]; above 100 µM in [4]; above 100 µM in [5]; above 100 µM in experiment [6]; above 100 µM in [7]. For the same compound, the TGI in experiment [8] is above 100 µM; in [9], above 100 µM; in experiment [11], 32.4 µM; in experiment [12], above 100 µM; in experiment [13] it was 74.8 µM; in experiment [15] it was 40 µM.
In the case of `O=S(=O)(CCC[C@H]1[C@@H](CCOCc2ccccc2)C2CCCN1O2)c1ccccc1` (some centres undefined), the TGI in experiment [14], in experiment [1], in experiment [2], in experiment [3], in experiment [4] and in [5] was above 100 µM in each case. In addition, the TGI in [6], in [7], in experiment [8], in experiment [9], in [10] and in [11] was above 100 µM in each case. The TGI in experiment [13] and in [15] was above 100 µM in each case.
Regarding `CN(C)CC1CCC/C(=C\c2ccccc2)C1=O` (centres undefined), the TGI came out at 3.18 µM in [14]; 34.2 µM in experiment [1]; 16.9 µM in [2]; 34 µM in [3]; 3.17 µM in [4]; 7.85 µM in experiment [6]. Further, the TGI in experiment [7] came to 4.18 µM; in experiment [8], 3.2 µM; in experiment [9] it was 38.2 µM; in experiment [10] it was 31.2 µM; in experiment [11], 28.7 µM; in experiment [12], 18.9 µM. Besides, the TGI worked out at 3.75 µM in experiment [13] and 20.2 µM in experiment [15].
Regarding `CCCCC1(O)CC2CC1C(C)C2(C)C` (centres undefined), the TGI in experiment [14], in [1], in experiment [3], in [4], in experiment [5] and in experiment [6] was above 100 µM throughout. Further, the TGI in experiment [7], in experiment [8], in experiment [9], in experiment [11], in [13] and in [15] was above 100 µM in each case.
As for `Cc1ccccc1Nc1nc(NNC(=O)Cc2ccccc2)nc(NNC(=O)c2ccncc2)n1`, the TGI in experiment [14], in experiment [1], in experiment [2], in [3], in experiment [4] and in experiment [5] was above 10 µM in each case. Also, the TGI in [6], in experiment [7], in experiment [8], in [11] and in experiment [15] was above 10 µM in each case.
Take `O=C1C=C(c2ccccc2)O/C1=C\C(=O)c1ccc(Cl)cc1`: the TGI is 13.1 µM in experiment [14]; above 100 µM in experiment [1]; above 100 µM in [2]; above 100 µM in experiment [3]; 58.2 µM in [4]; 73 µM in experiment [5]. In addition, the TGI in experiment [6] was 35 µM; in [7], 32.7 µM; in experiment [8] it was 32.5 µM; in experiment [10], above 100 µM; in experiment [11] it was 29.9 µM; in experiment [13] it was 47.1 µM. In experiment [15], the TGI came to 30.4 µM.
For the compound `CCOC(=O)c1sc2nc1CSc1sc(=S)sc1SCc1nc(sc1C(=O)OCC)-c1nc(c(C(=O)OCC)s1)CSc1sc(=S)sc1SCc1nc-2sc1C(=O)OCC`, the TGI in [14], in experiment [1], in experiment [2], in experiment [3], in experiment [4] and in experiment [5] was above 10 µM in each case. For the same compound, the TGI in experiment [6], in experiment [7], in experiment [8], in experiment [9], in experiment [11] and in experiment [12] was above 10 µM in each case. In addition, the TGI in experiment [13] and in [15] was above 10 µM each time.
For the compound `COC(=O)Cn1c(=O)oc2nc(-c3ccccc3)cc(C(F)(F)F)c21`, the TGI in experiment [14], in [1], in experiment [2], in experiment [3], in [4] and in experiment [6] was above 100 µM each time. The TGI in [7], in [8], in experiment [9], in experiment [10], in experiment [11] and in experiment [12] was above 100 µM throughout. Moreover, the TGI in experiment [13] and in experiment [15] was above 100 µM each time.
